Results published in patent US12377194B2, “JAB1 inhibitory compositions for ossification and methods related thereto” (Emory University, priority 2011, dated 2025).

Tests used:
Harlan athymic rats = assay: Collagen disc implantation with Jab1-blockers and BMP-2 in rat ectopic model; assay type: in vivo; parameters: Average (Xray score): scale not given here; details: 100 ul, chest implant, 4 weeks
Excerpt: Harlan athymic rats about 5-6 weeks of age were chest implanted with a collagen disc and doses of G8 and R13 in combination with BMP-2. After 4 weeks the rats were sacrificed and evaluated for bone growth.

Mouse C2C12 cells = assay: Alkaline phosphatase (ALP) assay, cell based screen of JAB1 blockers with BMP-2; details: cell based assay (FIG. 1-4)
Description: Mouse C2C12 cells and Dulbecco's modified Eagle's medium (DMEM) were purchased from ATCC (Manassas, VA). The non-heat inactivated fetal bovine serum (FBS) was purchased from HyClone Laboratories, Inc. (Logan, UT). The C2C12 cells at passages 4 to 7 were subcultured in T-75 cm2 flasks in DMEM supplemented with 10% FBS at 37° C. in 5% CO2 with humidification. When the flasks reached 80% confluence, the cells were trypsinized and seeded in triplicate at 200,000 cells/well in a 6-well plate for quantitative real-time RT-PCR and alkaline phosphatase (ALP) assays or at 50,000 cells/well in a 12-well plate for the dual-luciferase reporter assay.
The C2C12 cells were plated at 200,000 cells/well in 6-well plates and grown overnight in DMEM containing 10% FBS. On day 2, the culture medium was replaced with DMEM containing 2% FBS and the cells were treated with various concentrations of the JAB1-interacting compound for 24 hours. On day 3, the medium was replaced with fresh DMEM containing 2% FBS and the cells were treated with 50 ng/ml of BMP-2 for 72 hours. The cells were washed with phosphate-buffered saline (PBS) and lysed by addition of lysis buffer (10 mM Tris-HCl pH 8.0, 1 mM MgCl2 and 0.5% Triton X-100). The cell lysates were centrifuged for 5 minutes at 13,000×g. The supernatant was removed and the aliquots were assayed for ALP activity and protein amount. The ALP activity was measured in triplicate using an ALP assay kit (Sigma-Aldrich, St. Louis, MO) in microtiter plates. The protein amount was determined with Bio-Rad protein assay reagent (Bio-Rad, Hercules, CA) using bovine serum albumin (BSA) as a standard. The ALP activity (nmoles of p-nitrophenol per ml) was normalized to the protein amount (nmoles of p-nitrophenol per μg).

[1] = compound dose 2 mM + BMP-2 1.5 ug
[2] = compound dose 4 mM + BMP-2 1.5 ug
[3] = compound dose 6 mM + BMP-2 1.5 ug
[4] = compound dose 8 mM + BMP-2 1.5 ug
[5] = compound dose 11 mM + BMP-2 1.5 ug
[6] = compound dose 15 mM + BMP-2 1.5 ug
[7] = compound dose 19 mM + BMP-2 1.5 ug

COc1cc2nccc(Oc3ccc(Br)c(C)c3)c2cc1OC [#SRJ-G8, 4-(4-bromo-3-methylphenoxy)-6,7-dimethoxyquinoline]
Average (Xray score) (Harlan athymic rats; [1]): 3.5
Results (bone made, n of 4) (Harlan athymic rats; [1]): Bone made (4 of 4)
Average (Xray score) (Harlan athymic rats; [2]): 3.75
Results (bone made, n of 4) (Harlan athymic rats; [2]): Bone made (4 of 4)
Average (Xray score) (Harlan athymic rats; [3]): 3
Results (bone made, n of 4) (Harlan athymic rats; [3]): Bone made (3 of 4)
Average (Xray score) (Harlan athymic rats; [4]): 4
Results (bone made, n of 4) (Harlan athymic rats; [4]): Bone made (4 of 4)
Average (Xray score) (Harlan athymic rats; [5]): 1.25
Results (bone made, n of 4) (Harlan athymic rats; [5]): Bone made (1 of 4)
Average (Xray score) (Harlan athymic rats; [6]): 1.75
Results (bone made, n of 4) (Harlan athymic rats; [6]): Bone made (2 of 4)
Average (Xray score) (Harlan athymic rats; [7]): 0.75
Results (bone made, n of 4) (Harlan athymic rats; [7]): Bone made (1 of 4)
ALP activity (Mouse C2C12 cells): improving ALP activity

COc1cc(OC)c(C=C2C(=O)Nc3cc(Cl)ccc32)c(OC)c1 [#SRJ-R13, 6-chloro-3-(2,4,6-trimethoxybenzylidene)indolin-2-one]
Average (Xray score) (Harlan athymic rats; [1]): 1.75
Results (bone made, n of 4) (Harlan athymic rats; [1]): Bone made (3 of 4)
Average (Xray score) (Harlan athymic rats; [2]): 2.25
Results (bone made, n of 4) (Harlan athymic rats; [2]): Bone made (4 of 4)
Results (bone made, n of 4) (Harlan athymic rats; [3]): No bone (0 of 4)
Results (bone made, n of 4) (Harlan athymic rats; [4]): No bone (0 of 4)
Results (bone made, n of 4) (Harlan athymic rats; [5]): No bone (0 of 4)
Results (bone made, n of 4) (Harlan athymic rats; [6]): No bone (0 of 4)
Results (bone made, n of 4) (Harlan athymic rats; [7]): No bone (0 of 4)
ALP activity (Mouse C2C12 cells): improving ALP activity

COc1cc(Nc2nccc(Nc3ccc(F)cc3)n2)cc(OC)c1 [P5, N^2-(3,5-dimethoxyphenyl)-N^4-(4-fluorophenyl)pyrimidine-2,4-diamine]
ALP activity (Mouse C2C12 cells): improving ALP activity
